Experimental data reported in ChEMBL document CHEMBL4033626, “Design, synthesis, and structure-activity relationship study of halogen containing 2-benzylidene-1-indanone derivatives for inhibition of LPS-stimulated ROS production in RAW 264.7 macrophages” (Eur J Med Chem, 2017).
Calls of active or inactive are those of the source. No cut-off for these calls is given here.

How the values were obtained:
RAW264.7 [1] = experiment: Cytotoxicity against mouse RAW264.7 cells at 10 uM after 24 hrs by MTS assay; type: cell-based; details: raw264.7, 24 h
RAW264.7 [2] = experiment: Inhibition of LPS-stimulated ROS production in mouse RAW264.7 cells preincubated for 1 hr followed by LPS stimulation after 24 hrs by CMH2DCFDA probe-based fluorescence assay
[3] = Cytotoxicity against mouse RAW264.7 cells assessed as cell viability at 10 uM after 24 hrs by MTS assay relative to control; type: cell-based; details: read-out: Activity
Mus musculus = species: Mus musculus; experiment: Inhibition of LPS-stimulated NADPH oxidase activation in mouse RAW264.7 cells assessed as decrease in superoxide formation at 1 uM using NADPH as substrate preincubated for 1 hr followed by LPS stimulation for 24 hrs and subsequent substrate addition after 30 mins by lucigenin-based chemiluminescence assay; type: cell-based

Row | Structure (SMILES) | IC50 (RAW264.7 [2]) | Activity (RAW264.7 [1]) | viability at 24 h, 10 µM [3] | inhibition (Mus musculus)
1 | O=C1/C(=C/c2ccc(OC(F)(F)F)cc2)Cc2cccc(O)c21 | 3.15 µM | Non-Toxic | – | –
2 | O=C1/C(=C/c2ccc(OC(F)(F)F)cc2)Cc2ccccc21 | > 10 µM | Non-Toxic | – | –
3 | O=C1/C(=C/c2cccc(Br)c2)Cc2ccccc21 | > 10 µM | Non-Toxic | – | –
4 | O=C1/C(=C/c2ccccc2Br)Cc2cccc(O)c21 | > 10 µM | Non-Toxic | – | –
5 | O=C1/C(=C/c2ccccc2F)Cc2cc(O)ccc21 | > 10 µM | Non-Toxic | – | –
6 | O=C1/C(=C/c2ccc(C(F)(F)F)cc2)Cc2cc(O)ccc21 | 5.55 µM | Non-Toxic | – | –
7 | O=C1/C(=C/c2ccccc2C(F)(F)F)Cc2ccccc21 | > 10 µM | Non-Toxic | – | –
8 | O=C1/C(=C/c2cccc(C(F)(F)F)c2)Cc2cccc(O)c21 | > 10 µM | Non-Toxic | – | –
9 | O=C1/C(=C/c2cccc(C(F)(F)F)c2)Cc2ccccc21 | > 10 µM | Non-Toxic | – | –
10 | O=C1/C(=C/c2ccccc2OC(F)(F)F)Cc2ccccc21 | 7.27 µM | Non-Toxic | – | –
11 | O=C1/C(=C/c2cccc(C(F)(F)F)c2)Cc2cc(O)ccc21 | > 10 µM | Non-Toxic | – | –
12 | O=C1/C(=C/c2ccc(C(F)(F)F)cc2)Cc2ccc(O)cc21 | > 10 µM | Non-Toxic | – | –
13 | O=C1/C(=C/c2ccccc2C(F)(F)F)Cc2ccc(O)cc21 | 2.61 µM | Non-Toxic | – | –
14 | O=C1/C(=C/c2ccc(C(F)(F)F)cc2)Cc2cccc(O)c21 | 3.89 µM | Non-Toxic | – | –
15 | O=C1/C(=C/c2ccc(F)cc2)Cc2cc(O)ccc21 | > 10 µM | Non-Toxic | – | –
16 | O=C1/C(=C/c2ccc(OC(F)(F)F)cc2)Cc2cc(O)ccc21 | > 10 µM | Non-Toxic | – | –
17 | O=C1/C(=C/c2cccc(OC(F)(F)F)c2)Cc2ccc(O)cc21 | > 10 µM | Non-Toxic | – | –
18 | O=C1/C(=C/c2ccc(OC(F)(F)F)cc2)Cc2ccc(O)cc21 | > 10 µM | Non-Toxic | – | –
19 | O=C1/C(=C/c2cccc(OC(F)(F)F)c2)Cc2ccccc21 | > 10 µM | Non-Toxic | – | –
20 | O=C1/C(=C/c2cccc(OC(F)(F)F)c2)Cc2cccc(O)c21 | 4.62 µM | Non-Toxic | – | –
21 | O=C1/C(=C/c2cccc(F)c2)Cc2cccc(O)c21 | 5.61 µM | Non-Toxic | – | –

Row | Structure (SMILES) | IC50 (RAW264.7 [2]) | Activity (RAW264.7 [1]) | viability at 24 h, 10 µM [3] | inhibition (Mus musculus)
22 | O=C1/C(=C/c2ccccc2OC(F)(F)F)Cc2cccc(O)c21 | 3.25 µM | Non-Toxic | – | –
23 | O=C1/C(=C/c2ccccc2F)Cc2ccc(O)cc21 | > 10 µM | Non-Toxic | – | –
24 | O=C1/C(=C/c2cccc(F)c2)Cc2cc(O)ccc21 | > 10 µM | Non-Toxic | – | –
25 | O=C1/C(=C/c2ccccc2Br)Cc2ccccc21 | > 10 µM | Non-Toxic | – | –
26 | O=C1/C(=C/c2ccccc2Br)Cc2cc(O)ccc21 | 8.18 µM | Non-Toxic | – | –
27 | O=C1/C(=C/c2ccccc2F)Cc2cccc(O)c21 | 3.82 µM | Non-Toxic | – | –
28 | O=C1/C(=C/c2ccc(C(F)(F)F)cc2)Cc2ccccc21 | > 10 µM | Non-Toxic | – | –
29 | O=C1/C(=C/c2ccccc2C(F)(F)F)Cc2cc(O)ccc21 | > 10 µM | Non-Toxic | – | –
30 | O=C1/C(=C/c2ccccc2F)Cc2ccccc21 | > 10 µM | Non-Toxic | – | –
31 | O=C1/C(=C/c2cccc(C(F)(F)F)c2)Cc2ccc(O)cc21 | 4.55 µM | Non-Toxic | – | –
32 | O=C1/C(=C/c2ccccc2OC(F)(F)F)Cc2c(O)cccc21 | > 10 µM | Non-Toxic | – | –
33 | O=C1/C(=C/c2ccc(F)cc2)Cc2ccccc21 | > 10 µM | Non-Toxic | – | –
34 | O=C1/C(=C/c2ccccc2Br)Cc2ccc(O)cc21 | 4 µM | Non-Toxic | – | –
35 | O=C1/C(=C/c2ccccc2OC(F)(F)F)Cc2cc(O)ccc21 | 3.38 µM | Non-Toxic | – | –
36 | O=C1/C(=C/c2ccccc2C(F)(F)F)Cc2cccc(O)c21 | 1.94 µM | Non-Toxic | – | –
37 | O=C1/C(=C/c2cccc(OC(F)(F)F)c2)Cc2cc(O)ccc21 | 8.01 µM | Non-Toxic | – | –
38 | O=C1/C(=C/c2cccc(F)c2)Cc2ccc(O)cc21 | > 10 µM | Non-Toxic | – | –
39 | O=C1/C(=C/c2ccccc2)Cc2ccccc21 | > 10 µM | – | < 90% | –
40 | O=C1/C(=C/c2cccc(F)c2)Cc2ccccc21 | > 10 µM | Non-Toxic | – | –
41 | O=C1/C(=C/c2ccccc2OC(F)(F)F)Cc2ccc(O)cc21 | 1.33 µM | Non-Toxic | – | Active

Continued, in another order:

Row | IC50 (RAW264.7 [2]) | Structure (SMILES) | Activity (RAW264.7 [1]) | viability at 24 h, 10 µM [3] | inhibition (Mus musculus)
42 | 6.05 µM | O=C1/C(=C/c2ccc(Br)cc2)Cc2cc(O)ccc21 | Non-Toxic | – | –
43 | > 10 µM | O=C1/C(=C/c2ccc(F)cc2)Cc2c(O)cccc21 | Non-Toxic | – | –
44 | > 10 µM | O=C1/C(=C/c2ccc(Br)cc2)Cc2c(O)cccc21 | Non-Toxic | – | –
45 | > 10 µM | O=C1/C(=C/c2ccccc2C(F)(F)F)Cc2c(O)cccc21 | Non-Toxic | – | –
46 | > 10 µM | O=C1/C(=C/c2ccc(F)cc2)Cc2ccc(O)cc21 | Non-Toxic | – | –
47 | 5.06 µM | O=C1/C(=C/c2ccc(F)cc2)Cc2cccc(O)c21 | Non-Toxic | – | –
48 | 4.27 µM | O=C1/C(=C/c2ccc(Br)cc2)Cc2ccc(O)cc21 | – | < 90% | –
49 | > 10 µM | O=C1/C(=C/c2ccccc2F)Cc2c(O)cccc21 | Non-Toxic | – | –
50 | 3.9 µM | O=C1/C(=C/c2cccc(Br)c2)Cc2ccc(O)cc21 | Non-Toxic | – | –
51 | > 10 µM | O=C1/C(=C/c2ccc(C(F)(F)F)cc2)Cc2c(O)cccc21 | Non-Toxic | – | –
52 | > 10 µM | O=C1/C(=C/c2cccc(C(F)(F)F)c2)Cc2c(O)cccc21 | Non-Toxic | – | –
53 | > 10 µM | O=C1/C(=C/c2ccccc2Br)Cc2c(O)cccc21 | Non-Toxic | – | –
54 | 4.05 µM | O=C1/C(=C/c2cccc(Br)c2)Cc2cc(O)ccc21 | Non-Toxic | – | –
55 | > 10 µM | O=C1/C(=C/c2cccc(Br)c2)Cc2c(O)cccc21 | Non-Toxic | – | –
56 | > 10 µM | O=C1/C(=C/c2ccc(Br)cc2)Cc2cccc(O)c21 | Non-Toxic | – | –
57 | > 10 µM | O=C1/C(=C/c2ccc(OC(F)(F)F)cc2)Cc2c(O)cccc21 | Non-Toxic | – | –
58 | > 10 µM | O=C1/C(=C/c2cccc(Br)c2)Cc2cccc(O)c21 | Non-Toxic | – | –
59 | > 10 µM | O=C1/C(=C/c2cccc(OC(F)(F)F)c2)Cc2c(O)cccc21 | Non-Toxic | – | –
60 | > 10 µM | O=C1/C(=C/c2cccc(F)c2)Cc2c(O)cccc21 | Non-Toxic | – | –
61 | > 10 µM | O=C1/C(=C/c2ccc(Br)cc2)Cc2ccccc21 | Non-Toxic | – | –
